melting point [°C] | Compound
223 to 225 | CC(=O)NC[C@H]1CN(c2ccc(C(=O)c3cnc4ccc([N+](=O)[O-])cn34)cc2)C(=O)O1
214 to 217 | N=C(N)c1ccc2cc(OC(=O)C3CC3)ccc2c1
134 to 135 | Cc1nc(Cl)c(C#N)cc1-c1ccccc1
252 | CNN(NC)C(=O)Nc1cccc2c1C(=O)c1c-2n[nH]c1-c1cc(C)sc1C
102 to 104 | CC(C)(CO)Nc1cc(Cl)ccc1[N+](=O)[O-]
184 | CN(C)S(=O)(=O)c1cc(-c2csc(=Nc3ccc(Cl)cc3)n2C)ccc1Cl
123 to 129 | CCCCCCCCCC(O)CNCCCCCCNCC(O)CCCCCCCCC (stereo not given)
208 to 210 | CC(=O)Nc1nc(-c2ccc(CCC(=O)O)cc2)c(Cc2ccc(S(C)(=O)=O)cc2)s1
256 to 259 | Cc1c(-c2ccccc2)n(-c2ccc(F)cc2)c(-c2ccccc2)cc1=O
109 | CCCC(=O)c1cc2ccccc2cc1C(=O)O
234 to 237 | COc1ccc(CCNC(=O)C(F)(F)F)c2c1NC(=O)C2=O
166 to 167 | CN(Cc1cc2c3c(c1)c(=O)c(C(=O)NCc1ccc(Cl)cc1)cn3CC(=O)N2CCO)C[C@@H](O)c1ccco1
62 to 64 | Cc1ccc(-c2c(Cl)ncnc2OCCO)cc1
> 300 | CCCc1nn(C)c2c(=O)[nH]c(Cc3ccc4[nH]c(=O)ccc4c3)nc12
184 to 187 | Cc1nc2c(N)nc3ccccc3c2s1
101 to 102 | O=C1CCC2=C(CCc3cc(F)ccc32)N1Cc1ccccc1
45.5 to 47.5 | Cc1ccccc1-c1cc(=O)c2ccccc2o1
180 | CN1C=CNC1=C(C(=O)C(F)(F)F)C(=O)C(F)(F)F
243 | CNC(=O)CC1CCN(Cc2cnc3cc(NC(=O)c4ccc(-c5ccc(F)cc5)cc4)c(C)cc3c2)CC1
69 | CC(=O)NCC(=O)c1ccccc1
165 to 167 | Nc1nc(N2CCOCC2)c2ncn(C3C=CC(CO)C3)c2n1 (stereo not given)
150 to 155 | CCOC(=O)C(C#N)=CNc1ccc(OC)c(OC)c1

melting point [°C] | Compound
216 to 218 | CC(C)Oc1ccc(N2CCCN(c3cc[nH]c(=S)c3C#N)CC2)cc1
111 | c1ccc(C(c2ccc3cccnc3c2)n2ccnc2)cc1 (stereo not given)
254 to 255 | CSc1ccc(-n2cnc3ccc(-c4nnc(N)o4)cc32)cc1
180 to 181 | CS(=O)(=O)c1ccc(C(CC2CCCC2)C(=O)O)cc1C#N (stereo not given)
127 to 128 | Cc1nccc(N2CCC(CN3CCN(C(=O)c4ccc(F)cc4)CC3)CC2)n1
163 to 166 | CC1(C)[C@@H](CS(=O)(=O)c2ccc(S(C)(=O)=O)cc2)CC[C@@]1(C)NCC(=O)N1C[C@@H](F)C[C@H]1C#N
123 to 124 | COC(=O)c1cc(OCc2nc(-c3ccccc3)oc2C)no1
156 to 158 | Cc1sc2cc3ccccc3c(-c3ccc(O)c(C4CCCC4)c3)c2c1C
139 to 140 | Cc1oc(-c2ccccc2)nc1COc1ccc(COc2ncccc2CO)cc1
183 to 185 | Nc1ccc(C23CC2C(=O)NC3=O)cc1 (stereo not given)
178 to 180 | COc1ccc(C(F)(F)F)cc1NC(=O)Nc1ccc(-c2c(C(N)=O)[nH]c3ccccc23)cc1
145 to 153 | COc1cc2c(c(C(=O)O)c1OC)CCN(Cc1ccccc1)CC2c1ccccc1 (stereo not given)
113 to 114 | CNCCc1ccc(-c2ccc(OC(C)C(O)CCc3cccnc3)cc2)cc1 (stereo not given)
189 to 193 | Cc1cc(C)cc(S(=O)(=O)n2c(CCC(=O)O)cc3cc(Cl)ccc32)c1
165 to 169 | CCN(CC)C(=O)c1ccc(C)c(-c2nc(NC3CCN(C)CC3)nc3c2CNC(=O)N3c2c(F)cccc2F)c1
135 | CC(=O)c1ccc(C2(O)CC(C)(C)CC(C)(C)C2)cc1
102 to 105 | COC(=O)C(=O)c1cc2c3c(c1)CCN3CCC2
138 to 140 | CCCc1c(OCCCS(=O)(=O)c2ccc(C(=O)CCCCC(=O)O)cc2)ccc(C(C)=O)c1O
173 to 175 | NNC(=O)c1ncccn1
87.9 to 89.4 | CCc1ccc(OCC(=O)N(Cc2nc(-c3cccnc3)no2)C(C)C)cc1
199 to 200 | COCCc1nc2c(N)nc3ccccc3c2n1CCCNC(=S)NC1CCCCC1
128 to 130 | C#CCN(C(=O)CO)c1c(C)nc(N(C)C)nc1C

melting point [°C] | Compound
221 to 224 | Cc1cc(Oc2cccnc2)c(S(C)(=O)=O)cc1C(=O)N=C(N)N
247 to 248 | CCCCc1nccn1-c1nc(Cl)nc2nc[nH]c12
200 to 203 | CON=C(C)c1cc(-c2ccc(S(C)(=O)=O)cc2)c(-c2ccc(F)cc2)s1
160 to 162 | CCC1(CC)NC(=O)Oc2ccccc21
> 300 | CC(=O)Nc1cccc2c1C(=O)c1c-2n[nH]c1-c1cccnc1
165 to 166 | COc1ccc2nc(C)cc(Oc3cc(-c4ccc(C(F)(F)F)cc4)ncn3)c2c1
145 to 146 | COc1ccccc1N1CCN(CCC(N)=O)CC1
255 | CN(CCN(C)CCN1C(=O)c2cccc3cc4ccccc4c(c23)C1=O)CCN1C(=O)c2cccc3cc4ccccc4c(c23)C1=O
124 | Cc1nc2c(OCc3c(Cl)ccc(S(=O)(=O)N4CCC[C@H]4C(=O)NCc4ccc(C=NN)cc4)c3Cl)cccn2c1Br
164 to 166 | Fc1ccccc1-c1ccc2nnn(Cc3ccc4ncccc4c3)c2n1
136 | COc1cccc2cc(C(=O)c3ccc(Cl)c([N+](=O)[O-])c3)oc12
108 to 110 | COc1ccc(CCc2ccncc2N)cc1OC1CCCC1
234 to 235 | CC1(C)C(=O)Nc2ccc(-c3cccc([N+](=O)[O-])c3)cc21
281 to 284 | C=C1SC(=S)N(c2ccc3cc(-c4ccc(OC)c(C(C)(C)C)c4)ccc3c2)C1=O
147 to 148 | CC(=NO)c1ccc(N2CCN(C(=O)CCCCCCC(=O)NO)CC2)cc1
165 to 166 | CCN1C(=O)C(=C2Oc3ccccc3N2CC)SC1=S
249 to 250 | O=C(NCc1ccc(Cl)cc1)c1cnc2c(C(F)(F)F)cc(CCCO)cc2c1O
283 | NS(=O)(=O)c1ccc(-c2noc(-c3cnn4c(C(F)F)cc(-c5ccc(C(F)(F)F)cc5)nc34)n2)cc1
249 to 251 | Nc1ccc(S(=O)(=O)c2cc(-c3cccc([N+](=O)[O-])c3)nc(N3CCCC3)c2)cc1
137 to 139 | O=C(O)COCCCC1CCCN1c1cnc(-c2ccccc2)c(-c2ccccc2)n1 (stereo not given)

Compound | melting point [°C]
O=C(CC1c2ccccc2C(=O)N1c1ccc2ccc(Cl)nc2n1)N1CCC2(CC1)OCCO2 (stereo not given) | 238 to 239
CCC(O)(C#Cc1ncn2c1CN(C)C(=O)c1c(Cl)cccc1-2)CC | 186 to 188
CC1N=C(c2ccccc2Cl)c2c(ccc(NC(=O)NC3CCC(O)CC3)c2Br)N(C)C1=O (stereo not given) | 226 to 227
O=C1CCC(N2CCC(n3c(=O)[nH]c4ccccc43)CC2)CC1 | 221 to 223
O=C(Cl)OCC1c2ccccc2Oc2ccccc21 | 64 to 65
Cc1cc2c(cc1C)C(=O)C(CN1CCC3(CC1)C(=O)NCN3c1ccccc1)CC2 (stereo not given) | 182 to 183

Source: a melting point compilation (Tetko et al.; mined from patent text by program, amines drawn as free bases though some values may be those of a salt)
